Data from PMC4767141, “Discovery of Potent, Orally Bioavailable, Small-Molecule Inhibitors of WNT Signaling from a Cell-Based Pathway Screen” (Journal of Medicinal Chemistry, 2015).
Values joined by “and” are separate entries in the source; they are usually repeats but may differ in a detail not shown here. Identical values can stand only once.

Legend:
[1] = Clint determination; assay type: in vitro ADME; conditions: human, microsomes, pH 7.4, human microsomes, read-out: Clint (μL/min/mg) Human
[2] = Caco-2 Papp determination; assay type: in vitro ADME, human; conditions: for Papp at 2 h, 1 μM: human, Caco-2, pH 7.4
[3] = biological target: T1, M3 (h) (Homo sapiens, UniProt P20309); experiment: CEREP binding panel; conditions: antagonist radioligand, read-out: % Inhibition of Control Specific Binding
T1 construct: purchased Millipore KinaseProfiler (kinases); Cerep (receptors and ion channels)

[4] = biological target: T2, NOP (ORL1) (h) (Homo sapiens, UniProt P41146); experiment: CEREP binding panel; conditions: agonist radioligand, read-out: % Inhibition of Control Specific Binding
T2 construct: purchased Millipore KinaseProfiler (kinases); Cerep (receptors and ion channels)

[5] = test system: BLK; experiment: Millipore kinase panel; assay type: biochemical; conditions: 1 μM, ATP at Km
[6] = biological target: T3, EPHA2 (Homo sapiens, UniProt P29317); experiment: Millipore kinase panel; assay type: biochemical; conditions: read-out: % Control
T3 construct: purchased Millipore KinaseProfiler (kinases); Cerep (receptors and ion channels)

[7] = biological target: T4, GSK3BETA (Homo sapiens, UniProt P49841); experiment: Millipore kinase panel; assay type: biochemical; conditions: read-out: % Control
T4 construct: purchased Millipore

[8] = biological target: T5, MAPKAP-K3 (Homo sapiens, UniProt Q16644); experiment: Millipore kinase panel; assay type: biochemical; conditions: read-out: % Control
T5 construct: purchased Millipore KinaseProfiler (kinases); Cerep (receptors and ion channels)

[9] = biological target: T6, MSK2 (Homo sapiens, UniProt O75676); experiment: Millipore kinase panel; assay type: biochemical; conditions: read-out: % Control
T6 construct: purchased Millipore KinaseProfiler (kinases); Cerep (receptors and ion channels)

[10] = biological target: T7, NEK2 (Homo sapiens, UniProt P51955); experiment: Millipore kinase panel; assay type: biochemical; conditions: read-out: % Control
T7 construct: purchased Millipore KinaseProfiler (kinases); Cerep (receptors and ion channels)

[11] = biological target: T8, PASK (Homo sapiens, UniProt Q96RG2); experiment: Millipore kinase panel; assay type: biochemical; conditions: read-out: % Control
T8 construct: purchased Millipore KinaseProfiler (kinases); Cerep (receptors and ion channels)

[12] = biological target: T9, PRAK (Homo sapiens, UniProt Q8IW41); experiment: Millipore kinase panel; assay type: biochemical; conditions: read-out: % Control
T9 construct: purchased Millipore KinaseProfiler (kinases); Cerep (receptors and ion channels)

[13] = biological target: T10, PYK2 (Homo sapiens, UniProt Q14289); experiment: Millipore kinase panel; assay type: biochemical; conditions: read-out: % Control
T10 construct: purchased Millipore KinaseProfiler (kinases); Cerep (receptors and ion channels)

[14] = biological target: T11, RET (Homo sapiens, UniProt P07949); experiment: Millipore kinase panel; assay type: biochemical; conditions: read-out: % Control
T11 construct: purchased Millipore KinaseProfiler (kinases); Cerep (receptors and ion channels)

[15] = biological target: T12, ROS (Homo sapiens, UniProt P08922); experiment: Millipore kinase panel; assay type: biochemical; conditions: read-out: % Control
T12 construct: purchased Millipore KinaseProfiler (kinases); Cerep (receptors and ion channels)

[16] = biological target: T13, TRKA (Homo sapiens, UniProt P04629); experiment: Millipore kinase panel; assay type: biochemical; conditions: read-out: % Control
T13 construct: purchased Millipore KinaseProfiler (kinases); Cerep (receptors and ion channels)

[17] = biological target: T14, TRKB (Homo sapiens, UniProt Q16620); experiment: Millipore kinase panel; assay type: biochemical; conditions: read-out: % Control
T14 construct: purchased Millipore KinaseProfiler (kinases); Cerep (receptors and ion channels)

[18] = biological target: T15, PHKGAMMA2 (Homo sapiens, UniProt P15735); experiment: Millipore kinase panel; assay type: biochemical; conditions: read-out: % Control
T15 construct: purchased Millipore KinaseProfiler (kinases); Cerep (receptors and ion channels)

[19] = biological target: T16, TEC ACTIVATED (Homo sapiens, UniProt P42680); experiment: Millipore kinase panel; assay type: biochemical; conditions: read-out: % Control
T16 construct: purchased Millipore KinaseProfiler (kinases); Cerep (receptors and ion channels)

[20] = biological target: T17, IR, ACTIVATED (Homo sapiens, UniProt P06213); experiment: Millipore kinase panel; assay type: biochemical; conditions: read-out: % Control
T17 construct: purchased Millipore KinaseProfiler (kinases); Cerep (receptors and ion channels)

[21] = biological target: CYP450 2D6 (Homo sapiens, UniProt P10635); experiment: CYP450 inhibition; assay type: in vitro ADME
[22] = biological target: CYP450 3A4 (Homo sapiens, UniProt P08684); experiment: CYP450 inhibition; assay type: in vitro ADME
[23] = test system: BZD (central); experiment: CEREP binding panel; conditions: 10 μM, agonist radioligand
[24] = biological target: T18, V1a (h) (Homo sapiens, UniProt P37288); experiment: CEREP binding panel; conditions: agonist radioligand, read-out: % Inhibition of Control Specific Binding
T18 construct: purchased Millipore KinaseProfiler (kinases); Cerep (receptors and ion channels)

[25] = biological target: T19, CDK2/CYCLINE (Homo sapiens, UniProt P24941); experiment: Millipore kinase panel; assay type: biochemical; conditions: read-out: % Control
T19 construct: purchased Millipore KinaseProfiler (kinases); Cerep (receptors and ion channels)

[26] = biological target: T20, CK2ALPHA2 (Homo sapiens, UniProt P19784); experiment: Millipore kinase panel; assay type: biochemical; conditions: read-out: % Control
T20 construct: purchased Millipore KinaseProfiler (kinases); Cerep (receptors and ion channels)

[27] = biological target: T21, IR (Homo sapiens, UniProt P06213); experiment: Millipore kinase panel; assay type: biochemical; conditions: read-out: % Control
T21 construct: purchased Millipore KinaseProfiler (kinases); Cerep (receptors and ion channels)

[28] = biological target: T22, NEK11 (Homo sapiens, UniProt Q8NG66); experiment: Millipore kinase panel; assay type: biochemical; conditions: read-out: % Control
T22 construct: purchased Millipore KinaseProfiler (kinases); Cerep (receptors and ion channels)

[29] = biological target: T23, PKCBII (Homo sapiens, UniProt P05771); experiment: Millipore kinase panel; assay type: biochemical; conditions: read-out: % Control
T23 construct: purchased Millipore KinaseProfiler (kinases); Cerep (receptors and ion channels)

[30] = biological target: T24, PKCETA (Homo sapiens, UniProt P24723); experiment: Millipore kinase panel; assay type: biochemical; conditions: read-out: % Control
T24 construct: purchased Millipore KinaseProfiler (kinases); Cerep (receptors and ion channels)

[31] = biological target: T25, PKCIOTA (Homo sapiens, UniProt P41743); experiment: Millipore kinase panel; assay type: biochemical; conditions: read-out: % Control
T25 construct: purchased Millipore KinaseProfiler (kinases); Cerep (receptors and ion channels)

[32] = biological target: T26, SYK (Homo sapiens, UniProt P43405); experiment: Millipore kinase panel; assay type: biochemical; conditions: read-out: % Control
T26 construct: purchased Millipore KinaseProfiler (kinases); Cerep (receptors and ion channels)

[33] = biological target: T27, CAMKIIDELTA (Homo sapiens, UniProt Q13557); experiment: Millipore kinase panel; assay type: biochemical; conditions: read-out: % Control
T27 construct: purchased Millipore KinaseProfiler (kinases); Cerep (receptors and ion channels)

[34] = biological target: T28, CKIT(V560G) (Homo sapiens, UniProt P10721, V560G); experiment: Millipore kinase panel; assay type: biochemical; conditions: read-out: % Control
T28 construct: purchased Millipore KinaseProfiler (kinases); Cerep (receptors and ion channels)

[35] = biological target: T29, PDGFRALPHA(D842V) (Homo sapiens, UniProt P16234, D842V); experiment: Millipore kinase panel; assay type: biochemical; conditions: read-out: % Control
T29 construct: purchased Millipore KinaseProfiler (kinases); Cerep (receptors and ion channels)

[36] = biological target: T30, FGFR1(V561M) (Homo sapiens, UniProt P11362, V561M); experiment: Millipore kinase panel; assay type: biochemical; conditions: read-out: % Control
T30 construct: purchased Millipore KinaseProfiler (kinases); Cerep (receptors and ion channels)

[37] = biological target: T31, CHK2(R145W) (Homo sapiens, UniProt O96017, R145W); experiment: Millipore kinase panel; assay type: biochemical; conditions: read-out: % Control
T31 construct: purchased Millipore KinaseProfiler (kinases); Cerep (receptors and ion channels)

[38] = biological target: T32, SRC(1-530) (Homo sapiens, UniProt P12931); experiment: Millipore kinase panel; assay type: biochemical; conditions: read-out: % Control
T32 construct: purchased Millipore KinaseProfiler (kinases); Cerep (receptors and ion channels)

[39] = biological target: T33, SRC(T341M) (Homo sapiens, UniProt P12931, T341M); experiment: Millipore kinase panel; assay type: biochemical; conditions: read-out: % Control
T33 construct: purchased Millipore KinaseProfiler (kinases); Cerep (receptors and ion channels)

[40] = biological target: T34, RET (V804L) (Homo sapiens, UniProt P07949, V804L); experiment: Millipore kinase panel; assay type: biochemical; conditions: read-out: % Control
T34 construct: purchased Millipore KinaseProfiler (kinases); Cerep (receptors and ion channels)

[41] = biological target: T35, MTOR/FKBP12 (Homo sapiens, UniProt P42345); experiment: Millipore kinase panel; assay type: biochemical; conditions: read-out: % Control
T35 construct: purchased Millipore KinaseProfiler (kinases); Cerep (receptors and ion channels)

T2 sequence (P41146 whole entry): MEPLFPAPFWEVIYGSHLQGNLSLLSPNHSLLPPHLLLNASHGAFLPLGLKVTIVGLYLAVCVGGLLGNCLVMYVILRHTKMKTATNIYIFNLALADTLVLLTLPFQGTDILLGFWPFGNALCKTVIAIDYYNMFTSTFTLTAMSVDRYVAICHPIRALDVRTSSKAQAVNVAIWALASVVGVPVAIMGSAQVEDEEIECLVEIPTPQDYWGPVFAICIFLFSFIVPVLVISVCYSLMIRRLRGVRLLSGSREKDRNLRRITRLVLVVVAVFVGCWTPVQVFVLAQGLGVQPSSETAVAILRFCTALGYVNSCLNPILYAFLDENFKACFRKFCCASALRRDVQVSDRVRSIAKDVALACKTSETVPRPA
T3 sequence (P29317 24-976): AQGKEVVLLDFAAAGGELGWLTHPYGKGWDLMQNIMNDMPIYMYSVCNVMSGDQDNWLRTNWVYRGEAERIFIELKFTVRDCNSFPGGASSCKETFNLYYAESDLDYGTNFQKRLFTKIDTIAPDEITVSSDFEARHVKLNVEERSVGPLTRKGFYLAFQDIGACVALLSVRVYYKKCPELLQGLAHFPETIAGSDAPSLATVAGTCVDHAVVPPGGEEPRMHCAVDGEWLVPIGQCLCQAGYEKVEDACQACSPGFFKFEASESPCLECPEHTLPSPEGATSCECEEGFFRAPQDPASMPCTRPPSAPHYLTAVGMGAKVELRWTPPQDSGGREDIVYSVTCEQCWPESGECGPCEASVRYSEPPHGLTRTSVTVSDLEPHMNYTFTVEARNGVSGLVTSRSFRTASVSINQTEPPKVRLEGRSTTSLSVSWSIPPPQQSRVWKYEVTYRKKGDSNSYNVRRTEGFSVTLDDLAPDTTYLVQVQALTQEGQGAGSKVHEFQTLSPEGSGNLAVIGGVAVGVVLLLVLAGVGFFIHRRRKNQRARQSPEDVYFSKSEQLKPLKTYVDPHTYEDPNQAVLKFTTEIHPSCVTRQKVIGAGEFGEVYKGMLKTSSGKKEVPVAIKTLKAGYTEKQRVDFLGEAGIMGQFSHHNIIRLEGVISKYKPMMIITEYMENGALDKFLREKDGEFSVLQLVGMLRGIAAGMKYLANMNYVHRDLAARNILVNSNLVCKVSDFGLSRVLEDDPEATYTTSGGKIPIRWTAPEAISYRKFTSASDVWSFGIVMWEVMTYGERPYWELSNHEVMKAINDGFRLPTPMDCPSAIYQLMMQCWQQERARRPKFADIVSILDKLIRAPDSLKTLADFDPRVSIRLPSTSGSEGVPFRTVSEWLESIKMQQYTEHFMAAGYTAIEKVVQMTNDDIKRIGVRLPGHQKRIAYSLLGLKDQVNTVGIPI
T9 sequence (Q8IW41 whole entry): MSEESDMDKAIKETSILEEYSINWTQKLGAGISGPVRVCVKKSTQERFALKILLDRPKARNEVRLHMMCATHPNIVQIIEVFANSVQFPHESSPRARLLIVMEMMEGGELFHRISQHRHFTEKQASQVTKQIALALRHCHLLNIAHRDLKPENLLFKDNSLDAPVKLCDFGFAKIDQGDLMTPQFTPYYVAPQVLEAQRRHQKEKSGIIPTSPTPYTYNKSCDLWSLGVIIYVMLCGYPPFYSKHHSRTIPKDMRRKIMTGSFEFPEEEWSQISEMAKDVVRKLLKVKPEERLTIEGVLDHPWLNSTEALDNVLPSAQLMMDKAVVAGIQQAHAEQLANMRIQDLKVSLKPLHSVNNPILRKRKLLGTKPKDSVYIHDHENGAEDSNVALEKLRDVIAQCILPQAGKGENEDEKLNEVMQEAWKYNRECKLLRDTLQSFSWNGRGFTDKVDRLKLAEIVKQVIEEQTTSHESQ
T11 sequence (P07949 29-1114): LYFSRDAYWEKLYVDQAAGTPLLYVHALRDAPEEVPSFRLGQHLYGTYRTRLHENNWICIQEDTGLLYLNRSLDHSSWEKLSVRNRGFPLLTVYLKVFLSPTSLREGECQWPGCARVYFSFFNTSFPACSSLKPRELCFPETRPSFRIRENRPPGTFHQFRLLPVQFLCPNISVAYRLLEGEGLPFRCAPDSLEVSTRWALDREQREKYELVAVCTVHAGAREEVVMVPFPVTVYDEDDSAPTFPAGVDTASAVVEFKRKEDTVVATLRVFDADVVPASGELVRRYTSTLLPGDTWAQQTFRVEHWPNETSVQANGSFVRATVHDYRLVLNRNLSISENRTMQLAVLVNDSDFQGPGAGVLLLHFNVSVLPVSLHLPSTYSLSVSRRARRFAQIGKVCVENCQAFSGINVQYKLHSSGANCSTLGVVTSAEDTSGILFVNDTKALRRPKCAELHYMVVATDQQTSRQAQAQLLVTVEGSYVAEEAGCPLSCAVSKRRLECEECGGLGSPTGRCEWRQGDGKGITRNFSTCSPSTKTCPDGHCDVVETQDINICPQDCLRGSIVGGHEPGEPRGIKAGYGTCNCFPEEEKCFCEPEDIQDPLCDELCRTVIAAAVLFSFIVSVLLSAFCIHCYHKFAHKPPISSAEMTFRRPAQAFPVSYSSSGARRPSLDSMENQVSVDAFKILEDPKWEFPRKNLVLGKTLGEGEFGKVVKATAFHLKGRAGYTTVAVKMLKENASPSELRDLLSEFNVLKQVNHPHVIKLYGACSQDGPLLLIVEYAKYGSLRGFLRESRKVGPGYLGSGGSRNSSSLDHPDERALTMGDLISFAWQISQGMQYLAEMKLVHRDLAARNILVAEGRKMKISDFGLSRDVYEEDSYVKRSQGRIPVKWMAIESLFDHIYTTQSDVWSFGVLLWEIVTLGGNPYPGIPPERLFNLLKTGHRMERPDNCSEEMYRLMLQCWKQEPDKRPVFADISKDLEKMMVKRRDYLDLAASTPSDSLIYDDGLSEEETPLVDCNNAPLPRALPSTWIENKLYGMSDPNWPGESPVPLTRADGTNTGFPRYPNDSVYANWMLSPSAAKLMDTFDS
T10 sequence (Q14289 whole entry): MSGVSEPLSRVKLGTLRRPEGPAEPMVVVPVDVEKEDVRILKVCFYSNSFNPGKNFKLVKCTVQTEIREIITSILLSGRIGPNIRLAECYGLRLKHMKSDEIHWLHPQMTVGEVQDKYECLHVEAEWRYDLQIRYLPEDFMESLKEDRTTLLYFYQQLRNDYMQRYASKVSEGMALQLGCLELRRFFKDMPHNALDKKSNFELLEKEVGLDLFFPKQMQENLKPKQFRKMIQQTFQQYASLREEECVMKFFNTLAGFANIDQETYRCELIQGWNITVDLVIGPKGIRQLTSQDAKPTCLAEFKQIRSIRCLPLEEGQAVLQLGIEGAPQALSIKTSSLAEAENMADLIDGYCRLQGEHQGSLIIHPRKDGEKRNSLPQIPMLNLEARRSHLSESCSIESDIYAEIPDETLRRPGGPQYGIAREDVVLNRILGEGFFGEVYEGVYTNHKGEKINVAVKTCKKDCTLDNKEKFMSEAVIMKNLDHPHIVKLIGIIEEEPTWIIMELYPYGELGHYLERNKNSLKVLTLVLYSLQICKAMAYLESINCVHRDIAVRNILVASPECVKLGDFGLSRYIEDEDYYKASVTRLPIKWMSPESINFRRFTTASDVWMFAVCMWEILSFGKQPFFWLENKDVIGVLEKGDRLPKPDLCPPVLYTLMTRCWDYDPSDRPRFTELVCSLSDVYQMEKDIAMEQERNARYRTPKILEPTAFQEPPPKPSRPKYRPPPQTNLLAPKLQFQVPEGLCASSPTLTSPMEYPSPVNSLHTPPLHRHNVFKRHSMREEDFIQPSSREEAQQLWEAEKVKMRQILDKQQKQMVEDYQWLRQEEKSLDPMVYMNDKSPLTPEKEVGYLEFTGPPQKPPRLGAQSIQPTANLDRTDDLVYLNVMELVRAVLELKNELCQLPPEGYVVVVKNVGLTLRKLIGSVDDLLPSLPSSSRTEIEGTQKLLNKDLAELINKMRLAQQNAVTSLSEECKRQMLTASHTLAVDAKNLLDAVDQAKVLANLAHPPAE
T16 sequence (P42680 whole entry): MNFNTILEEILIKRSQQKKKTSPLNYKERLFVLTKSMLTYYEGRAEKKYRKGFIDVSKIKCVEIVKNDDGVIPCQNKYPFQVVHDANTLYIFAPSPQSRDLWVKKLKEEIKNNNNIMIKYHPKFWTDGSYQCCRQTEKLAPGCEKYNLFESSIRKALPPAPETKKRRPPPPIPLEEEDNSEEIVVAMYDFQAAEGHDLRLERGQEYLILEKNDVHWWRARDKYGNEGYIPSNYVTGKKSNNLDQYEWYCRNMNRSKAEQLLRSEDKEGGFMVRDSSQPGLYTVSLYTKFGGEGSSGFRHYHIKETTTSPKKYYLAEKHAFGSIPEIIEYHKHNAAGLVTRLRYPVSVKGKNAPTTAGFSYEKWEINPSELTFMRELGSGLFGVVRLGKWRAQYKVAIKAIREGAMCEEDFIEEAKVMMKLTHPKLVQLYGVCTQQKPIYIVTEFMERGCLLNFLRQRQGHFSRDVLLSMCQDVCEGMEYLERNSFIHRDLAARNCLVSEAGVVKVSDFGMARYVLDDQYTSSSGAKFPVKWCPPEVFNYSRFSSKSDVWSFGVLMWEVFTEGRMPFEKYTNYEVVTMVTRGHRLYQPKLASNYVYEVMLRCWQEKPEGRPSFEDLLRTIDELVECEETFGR
T15 sequence (P15735 whole entry): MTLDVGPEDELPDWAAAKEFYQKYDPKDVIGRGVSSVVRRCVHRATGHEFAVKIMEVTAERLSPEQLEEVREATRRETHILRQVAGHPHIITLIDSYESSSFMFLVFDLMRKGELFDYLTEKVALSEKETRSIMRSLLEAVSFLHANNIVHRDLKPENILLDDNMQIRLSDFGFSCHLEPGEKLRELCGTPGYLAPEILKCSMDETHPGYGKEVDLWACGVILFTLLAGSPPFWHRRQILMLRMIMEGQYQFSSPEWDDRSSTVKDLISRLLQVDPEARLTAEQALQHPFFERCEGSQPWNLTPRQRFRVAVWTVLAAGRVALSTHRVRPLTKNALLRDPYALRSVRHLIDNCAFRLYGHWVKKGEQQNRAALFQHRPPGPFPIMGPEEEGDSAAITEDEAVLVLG
T34 sequence (P07949 29-1114 V804L): as the sequence (P07949 29-1114) above, with V776L counted along it

O=C1NCCC12CCN(c1c(Cl)cncc1-c1ccc(N3CCOCC3)cc1)CC2 [Compound 44, 8-(3-Chloro-5-(4-morpholin-4-ylphenyl)pyridin-4-yl)-2,8-diazaspiro[4.5]decan-1-one]
microsomal CLint at 1 μM [1]: 115 µL/min/mg | Caco-2 efflux (efflux ratio, ER) [2]: no efflux | Papp at 2 h, 1 μM [2]: 37 ×10⁻⁶ cm/s | inhibition at 10 µM [3]: 47% | inhibition at 10 µM [4]: 12% | % Control [5]: 16% | remaining activity at 1 µM [6]: 10% | remaining activity at 1 µM [7]: -25% | remaining activity at 1 µM [8]: -3% | remaining activity at 1 µM [9]: 0% | remaining activity at 1 µM [10]: 3% | remaining activity at 1 µM [11]: 1% | remaining activity at 1 µM [12]: -8% | remaining activity at 1 µM [13]: -6% | remaining activity at 1 µM [14]: 14% | remaining activity at 1 µM [15]: 2% | remaining activity at 1 µM [16]: 17% | remaining activity at 1 µM [17]: 2% | remaining activity at 1 µM [18]: 10% | remaining activity at 1 µM [19]: 4% | remaining activity at 1 µM [20]: 17%

Cn1cc(-c2ccc(-c3cncc(Cl)c3N3CCC4(CCNC4=O)CC3)cc2)cn1 [Compound 74, 8-(3-Chloro-5-(4-(1-methyl-1H-pyrazol-4-yl)phenyl)pyridin-4-yl)-2,8-diazaspiro[4.5]decan-1-one]
Papp at 2 h, 1 μM [2]: 24 ×10⁻⁶ cm/s | IC50 [21]: > 20 µM | IC50 [22]: 11.4 µM | % Inhibition of Control Specific Binding [23]: 18% | inhibition at 10 µM [3]: 46% | inhibition at 10 µM [4]: 3% | inhibition at 10 µM [24]: -7% | % Control [5]: 0% and 6% | remaining activity at 1 µM [25]: -14% | remaining activity at 1 µM [26]: -1% | remaining activity at 1 µM [6]: -7% | remaining activity at 1 µM [27]: -8% | remaining activity at 1 µM [8]: 7% | remaining activity at 1 µM [9]: -6% | remaining activity at 1 µM [10]: 6% | remaining activity at 1 µM [28]: 7% | remaining activity at 1 µM [11]: 18% | remaining activity at 1 µM [29]: -3% | remaining activity at 1 µM [30]: -13% | remaining activity at 1 µM [31]: -25% | remaining activity at 1 µM [12]: 13% | remaining activity at 1 µM [13]: 5% | remaining activity at 1 µM [14]: 1% | remaining activity at 1 µM [15]: 7% | remaining activity at 1 µM [32]: 5% | remaining activity at 1 µM [16]: -7% | remaining activity at 1 µM [17]: -25% | remaining activity at 1 µM [18]: 4% | remaining activity at 1 µM [33]: 4% | remaining activity at 1 µM [34]: -5% | remaining activity at 1 µM [35]: -4% | remaining activity at 1 µM [36]: -8% | remaining activity at 1 µM [37]: 3% | remaining activity at 1 µM [38]: -8% | remaining activity at 1 µM [39]: -6% | remaining activity at 1 µM [40]: -8% | remaining activity at 1 µM [41]: 11% | remaining activity at 1 µM [19]: 14% | remaining activity at 1 µM [20]: -4%
